Laboratory results as given in patent publication US10125126B2, “N-cycloalkyl-N-[(heterocyclylphenyl)methylene]-(thio)carboxamide derivatives” (BAYER CROPSCIENCE AG, priority 2012, dated 2018).

Key:
[1] = log P by HPLC on a reversed-phase column (C 18), EEC Directive 79/831 Annex V.A8; assay type: physicochemical; conditions: for logP: HPLC on reversed-phase column (C 18), 40° C., 0.1% aqueous formic acid and acetonitrile, linear gradient 10% to 90% acetonitrile
In short: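 Retention times were converted to log P by linear interpolation between two successive unbranched alkan-2-ones (3 to 16 carbon atoms) of known log P used for calibration. Elution ran at 40° C with a linear gradient from 10% to 90% acetonitrile against 0.1% aqueous formic acid.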

[2] = tested on: Blumeria graminis f.sp. hordei; assay: In vivo preventive test on Blumeria graminis (barley); conditions: 500 ppm of active ingredient, evaluated 7 days after inoculation
Method: (§1) In Vivo Preventive Test on Blumeria graminis (Barley) [table] To produce a suitable preparation of active compound, 1 part by weight of active compound or active compound combination is mixed with the stated amounts of solvent and emulsifier, and the concentrate is diluted with water to the desired concentration. To test for preventive activity, young plants are sprayed with the preparation of active compound or active compound combination at the stated rate of application. After the spray coating has been dried, the plants are dusted with spores of Blumeria graminis f.sp. hordei.

Botrytis cinerea = assay: In vivo preventive test on Botrytis cinerea (grey mould); conditions: 500 ppm of active ingredient; gherkin plants; 4 to 5 days after contamination
In short: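 Gherkin plants at cotyledon stage Z11 were sprayed with compound, then inoculated 24 h later with Botrytis cinerea spores (50 000 spores per mL in nutrient solution). Plants were kept at 17° C and 90% RH, and percent efficacy versus solvent-treated controls was graded 4 to 5 days after contamination.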

Leptosphaeria nodorum = assay: In vivo preventive test on Leptosphaeria nodorum (wheat); conditions: 500 ppm of active ingredient, evaluated 8 days after inoculation
Method: as §1, with “Leptosphaeria nodorum Test (Wheat)” for “Blumeria graminis (Barley)”, “sprayed” for “dusted”, “a spore suspension” for “spores”, “Leptosphaeria nodorum. The plants remain for 48 hours in an incubation cabinet at approximately 20° C. and a relative atmospheric humidity of approximately 100%.” for “Blumeria graminis f.sp. hordei.”

Pyrenophora teres = assay: In vivo preventive test on Pyrenophora teres (barley); conditions: 500 ppm of active ingredient; barley plants; 14 days after contamination
Method: In Vivo Preventive Test on Pyrenophora teres (Barley) […] Barley plants (“Plaisant” variety), sown in starter cups on a 50/50 peat soil pozzolana substrate and grown at 22° C., are treated at the 1 leaf stage (10 cm height) by spraying with the active ingredient prepared as described above. Plants, used as controls, are treated with the mixture of acetone/tween/DMSO/water not containing the active material. After 24 hours, the plants are contaminated by spraying the leaves with an aqueous suspension of Pyrenophora teres spores (12 000 spores per mL). The spores are collected from a 12-day-old culture. […] Grading (% of efficacy) is carried out 14 days after the contamination, in comparison with the control plants.

Puccinia recondita = assay: In vivo preventive test on Puccinia recondita (brown rust on wheat); conditions: 500 ppm of active ingredient; wheat plants; 12 days after contamination
In short: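 Wheat plants ("Scipion") at 1-leaf stage, grown at 22° C, were sprayed with compound, then inoculated 24 h later with Puccinia recondita spores (100 000 spores per mL). Efficacy (%) graded 12 days after inoculation relative to solvent-treated controls.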

Septoria tritici = assay: In vivo preventive test on Septoria tritici (wheat); conditions: 500 ppm of active ingredient; wheat plants; 24 days after contamination
In short: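 Scipion wheat grown at 22° C, sprayed at 1-leaf stage (10 cm); controls received acetone/tween/DMSO/water without active. Inoculated 24 h later with S. tritici spores (500 000/mL), held 72 h at 18° C, 100% RH, then 21 days at 90% RH. % efficacy vs controls scored 24 days post-inoculation.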

Sphaerotheca fuliginea = assay: In vivo preventive test on Sphaerotheca fuliginea (powdery mildew on cucurbits); conditions: 500 ppm of active ingredient, gherkin plants, 12 days after contamination; for pest or weed control at 500 ppm: Podosphaera fuliginea, 288 h, read-out: Efficacy
In short: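 Gherkin plants ("Vert petit de Paris") grown at 24 °C were sprayed at cotyledon stage Z11; controls received acetone/tween/DMSO/water without active. Inoculation 24 h later by spraying cotyledons with 100 000 spores/mL. Efficacy (%) graded 12 days post-contamination versus controls.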

Uromyces appendiculatus = assay: In vivo preventive test on Uromyces appendiculatus (bean rust); conditions: 500 ppm of active ingredient; bean plants; 11 days after contamination
In short: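 Saxa bean plants at 2-leaf stage, grown at 24° C., sprayed preventively with compound; 24 h later inoculated with U. appendiculatus spores (150 000 spores per mL). Percent efficacy graded 11 days after inoculation versus solvent-treated controls.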

Venturia inaequalis = assay: In vivo preventive test on Venturia inaequalis (apples); conditions: 100 ppm of active ingredient, evaluated 10 days after inoculation
Method: In Vivo Preventive Test on Venturia inaequalis (apples) [table] To produce a suitable preparation of active compound, 1 part by weight of active compound is mixed with the stated amounts of solvent and emulsifier, and the concentrate is diluted with water to the desired concentration. To test for preventive activity, young plants are sprayed with the preparation of active compound at the stated rate of application. After the spray coating has dried on, the plants are inoculated with an aqueous conidia suspension of the causal agent of apple scab (Venturia inaequalis) and then remain for 1 day in an incubation cabinet at approximately 20° C. and a relative atmospheric humidity of 100%. The plants are then placed in a greenhouse at approximately 21° C. and a relative atmospheric humidity of approximately 90%.

Alternaria brassicae = assay: In vivo preventive test on Alternaria brassicae (leaf spot on radish); conditions: 500 ppm of active ingredient; radish plants; 6 days after contamination
Method: In Vivo Preventive Test on Alternaria brassicae (Leaf Spot on Radish) […] Radish plants (“Pernod Clair” variety), sown in starter cups on a 50/50 peat soil pozzolana substrate and grown at 17° C., are treated at the cotyledon stage by spraying with the active ingredient prepared as described above. Plants, used as controls, are treated with the mixture of acetone/tween/DMSO/water not containing the active material. After 24 hours, the plants are contaminated by spraying the cotyledons with an aqueous suspension of Alternaria brassicae spores (50 000 spores per mL). The spores are collected from a 15-day-old culture. The contaminated radish plants are incubated at 20° C. and at 100% relative humidity. Grading (% of efficacy) is carried out 6 days after the contamination, in comparison with the control plants.

| Compound | chromatographic logP [1] | logP [1] | Efficacy [2] | Efficacy (Botrytis cinerea) | Efficacy (Leptosphaeria nodorum) | Efficacy (Pyrenophora teres) | Efficacy (Puccinia recondita) | Efficacy (Septoria tritici) | pest or weed control at 500 ppm (Sphaerotheca fuliginea) | Efficacy (Uromyces appendiculatus) | Efficacy (Venturia inaequalis) | Efficacy (Alternaria brassicae) | Efficacy (Sphaerotheca fuliginea) |
| --- | --- | --- | --- | --- | --- | --- | --- | --- | --- | --- | --- | --- | --- |
| Cc1csc(-c2ccccc2CN(C(=O)c2c(C(F)F)nn(C)c2F)C2CC2)c1 [I.100, N-cyclopropyl-3-(difluoromethyl)-5-fluoro-1-methyl-N-[2-(4-methyl-2-thienyl)benzyl]-1H-pyrazole-4-carboxamide] | 3.99 |  | 100% | 80% | 83% | 95% | 100% | 100% | 100% | 100% |  |  |  |
| Cn1nc(C(F)F)c(C(=O)N(Cc2cc(Cl)ccc2C2(C)CO2)C2CC2)c1F (stereo not shown) [I.4, N-[5-chloro-2-(2-methyloxiran-2-yl)benzyl]-N-cyclopropyl-3-(difluoromethyl)-5-fluoro-1-methyl-1H-pyrazole-4-carboxamide] | 3.19 |  | 94% |  | 80% | 96% | 98% | 100% | 100% | 100% | 100% |  |  |
| Cn1nc(C(F)F)c(C(=O)N(Cc2cc(Cl)ccc2-c2ccoc2)C2CC2)c1F [I.28] |  | 3.64 |  |  |  | 79% | 94% | 97% |  | 99% |  | 96% |  |
| Cc1cscc1-c1ccc(F)cc1CN(C(=O)c1c(C(F)F)nn(C)c1F)C1CC1 [I.102] |  | 3.94 |  | 94% |  |  | 100% | 95% |  | 100% |  | 83% | 100% |
| Cn1nc(C(F)F)c(C(=O)N(Cc2ccccc2-c2ccoc2)C2CC2)c1F [I.29] |  | 3.23 |  | 100% |  | 93% | 81% | 96% |  | 100% |  | 82% |  |
| Cn1nc(C(F)F)c(C(=O)N(Cc2ccccc2C2(C)CO2)C2CC2)c1F (stereo not shown) [I.3] |  | 2.68 | 100% |  | 92% | 88% | 94% | 100% |  | 100% | 96% |  | 100% |
| Cc1csc(-c2ccc(F)cc2CN(C(=O)c2c(C(F)F)nn(C)c2F)C2CC2)c1 [I.101] |  | 4.09 |  | 99% |  | 95% | 100% | 100% |  | 100% |  | 83% | 100% |
| CC(C)c1ccc(-c2ccn(C)c2)cc1CN(C(=O)c1c(C(F)F)nn(C)c1F)C1CC1 [I.50] |  | 3.99 |  | 99% |  | 100% | 100% | 97% |  | 99% |  | 96% | 100% |
| Cn1cc(-c2ccccc2CN(C(=O)c2c(C(F)F)nn(C)c2F)C2CC2)cn1 [I.54] |  | 2.34 |  | 97% |  |  | 80% | 100% |  | 97% |  | 83% | 95% |

Continued, in another order:

| chromatographic logP [1] | logP [1] | Compound | Efficacy [2] | Efficacy (Botrytis cinerea) | Efficacy (Leptosphaeria nodorum) | Efficacy (Pyrenophora teres) | Efficacy (Puccinia recondita) | Efficacy (Septoria tritici) | pest or weed control at 500 ppm (Sphaerotheca fuliginea) | Efficacy (Uromyces appendiculatus) | Efficacy (Venturia inaequalis) | Efficacy (Alternaria brassicae) | Efficacy (Sphaerotheca fuliginea) |
| --- | --- | --- | --- | --- | --- | --- | --- | --- | --- | --- | --- | --- | --- |
|  | 3.96 | Cn1nc(C(F)F)c(C(=O)N(Cc2ccccc2-c2coc3ccccc23)C2CC2)c1F [I.131] |  | 100% |  | 93% | 75% | 96% |  |  |  | 91% | 98% |
|  | 4.39 | Cn1nc(C(F)F)c(C(=O)N(Cc2cc(F)ccc2-c2csc3ccccc23)C2CC2)c1F [I.154] |  |  |  | 71% | 75% | 96% |  |  |  | 75% | 98% |
|  | 4.34 | Cc1cscc1-c1ccc(Cl)cc1CN(C(=O)c1c(C(F)F)nn(C)c1F)C1CC1 [I.104] |  | 93% |  | 70% | 95% | 88% |  | 100% |  | 83% | 100% |
|  | 4.44 | Cn1nc(C(F)F)c(C(=O)N(Cc2cc(Cl)ccc2-c2coc3ccccc23)C2CC2)c1F [I.130] |  |  |  | 79% | 81% | 93% |  | 85% |  | 96% | 100% |
|  | 4.04 | Cn1nc(C(F)F)c(C(=O)N(Cc2cc(F)ccc2-c2ccsc2Cl)C2CC2)c1F [I.136] |  |  |  | 86% | 98% | 93% |  | 100% |  | 70% | 100% |
|  | 3.90 | Cc1cscc1-c1ccccc1CN(C(=O)c1c(C(F)F)nn(C)c1F)C1CC1 [I.105] | 100% |  |  | 97% | 100% | 80% |  | 100% |  |  | 100% |
|  | 4.41 | Cn1nc(C(F)F)c(C(=O)N(Cc2cc(Cl)ccc2-c2ccsc2Cl)C2CC2)c1F [I.137] |  |  |  | 79% | 88% | 97% |  |  |  | 70% | 100% |
|  | 4.06 | Cn1nc(C(F)F)c(C(=O)N(Cc2cc(F)ccc2-c2coc3ccccc23)C2CC2)c1F [I.129] |  | 92% |  | 86% |  | 90% |  | 96% |  | 97% | 100% |
|  | 4.32 | Cn1nc(C(F)F)c(C(=O)N(Cc2ccccc2-c2ccc(Cl)s2)C2CC2)c1F [I.139] |  | 100% |  | 100% | 94% | 96% |  | 100% | 100% | 73% |  |
